Where two headings read alike, the source gives them in different places. A value given as a limit tells only on which side of the number the result lay.

Data set [1] in a line: Multidose (three-day) pharmacokinetics in liquid diet in FVB mice. To be noted: for concentration at 3 days: FVB, mouse, in vivo.
Data set [2] relates to PrP^Sc in dividing ScN2a-c13 cells. The conditions noted are these: read-out: EC50 (ELISA), reduction of PrP^Sc load; dividing ScN2a-c13 cells.
The next data set relates to ScN2a-c13 cells. The data set can be described thus: cells. The class given is cell-based. The conditions noted are these: Mus musculus; N=3; read-out: EC50 by calcein for cell viability.
Data set [3] relates to PrP^Sc in dividing ScN2a-cl3 cells. The class given is cell-based, mouse.
Data set [4] is described as follows: Multiple-dose (three-day) pharmacokinetic studies in FVB mice, drug in liquid diet. It is filed as in vivo, mouse. To be noted: for concentration at 3 days: FVB, mouse, oral, 3 days in liquid diet, 40, 80, 130, 210 mg/kg/day. In a few lines: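 Cohorts of three wild-type FVB mice received compound from PEG400 stock in liquid diet with cocoa for three days at oral doses of 40-210 mg/kg, estimated from ~20 mL/day intake. Plasma and brain were collected at the end and measured by LC/MS/MS; […].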

A short description of a further data set: in vitro. To be noted: dog, MDCK-MDR1.
For another data set, the system named is P-gp (MDR1). The data set can be described thus: in vitro. To be noted: dog, MDCK-MDR1.
For data set [5] the following is noted: […].
A short description of data set [6]: Single-dose pharmacokinetics in FVB mice (oral gavage, IV). To be noted: single oral dose 40 mg/kg.
The mark [7] stands for this setting: 40 mg/kg, Plasma Concentration (Css), three-day dosing in liquid diet, plasma.
The mark [8] stands for this setting: 80 mg/kg, Brain Concentration (Css), three-day dosing in liquid diet, brain.
The mark [9] stands for this setting: 80 mg/kg, Plasma Concentration (Css), three-day dosing in liquid diet, plasma.
Setting [10] is: 130 mg/kg, Brain Concentration (Css), three-day dosing in liquid diet, brain.
Where [11] appears, read: 130 mg/kg, Plasma Concentration (Css), three-day dosing in liquid diet, plasma.
Where [12] appears, read: 210 mg/kg, Brain Concentration (Css), three-day dosing in liquid diet, brain.
Where [13] appears, read: 210 mg/kg, Plasma Concentration (Css), three-day dosing in liquid diet, plasma.
Where [14] appears, read: Table 29, 2-AMT analogs tested for potency, usually n = 3 or more.
[15] abbreviates: 40 mg/kg, Brain Concentration (Css), three-day dosing in liquid diet, brain.
Where [16] appears, read: Brain and plasma concentrations, 40, 80, 130 and 210 mg/kg/day for 3 days.
Where [17] appears, read: brain, read-out: brain concentration.
The mark [18] stands for this setting: plasma, read-out: plasma concentration.

Take `Cc1ccnc(Nc2nc(-c3ccncc3)cs2)c1` [IND52, (4-Methyl-pyridin-2-yl)-(4-pyridin-4-yl-thiazol-2-yl)-amine]: the concentration at 3 days is 10 ± 10 nM in [1] (setting [7]); 760 ± 1090 nM in [1] (setting [8]); 670 ± 1000 nM in [1] (setting [9]); 2340 ± 2130 nM in data set [1] (setting [10]); 1930 ± 1580 nM in data set [1] (setting [11]); 7650 ± 5570 nM in data set [1] (setting [12]). The same compound displayed a concentration at 3 days in data set [1] (setting [13]) of 10900 ± 8440 nM. The “Brain Concentration (Css), 40 mg/kg” value in data set [1] (three-day dosing in liquid diet, 40 mg/kg, brain) was “no measurable brain concentrations”. For the same compound, the EC50 (in general, the concentration that produces a half-maximal response) was 4950 nM in data set [2], over 10000 nM with ScN2a-c13 cells, 4950 nM in [3] (AMT analogs tested for potency) and 4950 nM in data set [3] (setting [14]). For the same compound, in data set [4] (3 days in liquid diet, 40 mg/kg dose), the brain concentration result is reported as “no measurable brain concentrations”. Also, the apical-to-basolateral permeability (Papp A→B) (usually how fast a substance crosses the layer from the apical side) in “in vitro” amounted to 36.2 ×10⁻⁶ cm/s. Also, the Papp B→A (commonly the apparent permeability from the basolateral to the apical side of a cell layer) in the data set “in vitro” amounted to 48.7 ×10⁻⁶ cm/s. Further, in the data set on P-gp (MDR1), the efflux ratio (in general, a quotient of directional permeabilities that is used to spot active efflux) was determined as 1.3. Besides, in data set [5], the “hepatic extraction ratio (ER)” value is recorded as “higher”.
With `c1ccc2cc(Nc3nc(-c4ccncc4)cs3)ncc2c1` [IND85, Isoquinolin-3-yl-(4-pyridin-4-yl-thiazol-2-yl)-amine], the concentration at 3 days in data set [1] (setting [15]) was 20 ± 30 nM; in data set [1] (setting [8]), 80 ± 30 nM; in data set [1] (setting [10]), 40 ± 30 nM; in [1] (setting [12]) it was 100 ± 70 nM; in data set [1] (setting [16]), at most 1000 nM; in [4] (setting [17]), at most 1000 nM. Also, the concentration at 3 days in data set [4] (setting [18]) is at most 1000 nM. Besides, in data set [6], the “Brain Cmax/EC50 ratio, 40 mg/kg” value is reported as “better Cmax:EC50 ratio at either dose”. Moreover, the EC50 in data set [3] (AMT analogs tested for potency) and in data set [3] (setting [14]) was 307 nM in each case. Besides, in the data set “in vitro”, the Papp A→B was 3.03 ×10⁻⁶ cm/s. The Papp B→A in “in vitro” came to 4.44 ×10⁻⁶ cm/s. Besides, in the data set on P-gp (MDR1), the efflux ratio was found to be 1.5. Besides, in data set [5], the “hepatic extraction ratio (ER)” value is given as “higher”.
Consider `COc1ccc(-c2csc(Nc3ccc4ccccc4n3)n2)cc1OC` [IND47, [4-(3,4-Dimethoxy-phenyl)-thiazol-2-yl]-quinolin-2-yl-amine], for which the concentration at 3 days in data set [1] (setting [15]) stood at 400 ± 280 nM; in data set [1] (setting [7]) it was 130 ± 100 nM; in data set [1] (setting [9]), 30 ± 20 nM; in data set [1] (setting [10]) it was 400 ± 510 nM; in data set [1] (setting [11]), 60 ± 20 nM; in [1] (setting [12]) it was 230 ± 260 nM. Besides, the concentration at 3 days was 120 ± 50 nM in data set [1] (setting [13]), at most 1000 nM in data set [1] (setting [16]), at most 1000 nM in data set [4] (setting [17]) and at most 1000 nM in [4] (setting [18]). Further, the EC50 in [3] (AMT analogs tested for potency) and in data set [3] (setting [14]) was 426 nM throughout. In the data set “in vitro”, this compound displayed a Papp A→B of 9.2 ×10⁻⁶ cm/s. The compound also had a Papp B→A in “in vitro” of 8.9 ×10⁻⁶ cm/s. Moreover, the efflux ratio in the data set on P-gp (MDR1) came to 1. Moreover, the “hepatic extraction ratio (ER)” value in data set [5] was “lower to moderate”.

The values are drawn from patent US20140329863A1 (priority 2011, published 2014).
